Assay [1] addresses T1, human TLR7 (Homo sapiens, UniProt Q9NYK1).
T1 construct: expressed in transfected cells; host or cells: Namalwa cells (ATCC CRL-1432), pCI-neo vector, electroporated, G418 selected, with pIFN-α1-luc reporter
T1 sequence (Q9NYK1 27-1049): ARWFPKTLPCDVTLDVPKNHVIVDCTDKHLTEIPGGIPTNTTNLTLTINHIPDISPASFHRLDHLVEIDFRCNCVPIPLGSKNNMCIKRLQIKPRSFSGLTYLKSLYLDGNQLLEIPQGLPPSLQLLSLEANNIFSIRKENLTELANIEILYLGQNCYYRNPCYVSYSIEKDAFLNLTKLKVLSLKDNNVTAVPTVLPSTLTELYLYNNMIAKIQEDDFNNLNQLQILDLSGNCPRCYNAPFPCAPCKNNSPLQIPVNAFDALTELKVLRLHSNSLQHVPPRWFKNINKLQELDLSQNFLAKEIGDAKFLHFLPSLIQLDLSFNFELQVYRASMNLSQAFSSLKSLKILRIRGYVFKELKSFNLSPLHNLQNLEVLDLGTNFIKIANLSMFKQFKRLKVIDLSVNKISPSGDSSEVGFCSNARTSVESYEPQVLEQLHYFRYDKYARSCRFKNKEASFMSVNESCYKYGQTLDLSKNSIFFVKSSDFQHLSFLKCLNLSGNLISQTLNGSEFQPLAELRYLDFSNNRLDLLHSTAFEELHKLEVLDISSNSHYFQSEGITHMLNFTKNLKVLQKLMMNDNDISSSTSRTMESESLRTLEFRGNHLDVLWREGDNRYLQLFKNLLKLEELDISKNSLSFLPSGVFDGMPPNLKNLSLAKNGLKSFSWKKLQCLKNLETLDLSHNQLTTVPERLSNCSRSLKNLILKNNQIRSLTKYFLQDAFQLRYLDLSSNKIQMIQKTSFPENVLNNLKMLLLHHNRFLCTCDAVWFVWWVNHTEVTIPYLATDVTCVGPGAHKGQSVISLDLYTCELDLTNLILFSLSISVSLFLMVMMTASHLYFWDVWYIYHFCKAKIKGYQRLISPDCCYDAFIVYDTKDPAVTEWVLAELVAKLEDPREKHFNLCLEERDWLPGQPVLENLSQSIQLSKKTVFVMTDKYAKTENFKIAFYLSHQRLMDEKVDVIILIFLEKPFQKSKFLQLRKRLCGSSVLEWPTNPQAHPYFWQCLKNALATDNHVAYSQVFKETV
Description: TLR7 activation in HEK293 cells (NF-kB-luc luciferase reporter, H-TLR7/H-vector). The class given is cell-based. To be noted: final IRM concentration 10 μM, 16 hours, normalized to the DMSO without compound control. The protocol: (§1) In one embodiment, exemplified in Example 1, selective modulation of TLR7-mediated NF-κB activation and TLR7-mediated IFN-α1 induction were assayed. NF-κB activation was measured in genetically modified HEK293 cells (H-TLR7) by detecting TLR7-mediated NF-κB-dependent transcription of a luciferase reporter. IFN-α1 induction was measured in genetically modified Namalwa cells (N-TLR7) by detecting TLR-mediated IFN-α1-induced transcription of a luciferase reporter. Results are shown in Table 2 and are expressed as the fold increase in TLR7-mediated luciferase signal—(H-TLR7/H-vector) and (N-TLR7/N-vector), respectively—normalized to a control in which the cells were treated with vehicle that contained no IRM compound. In this assay, a compound was considered to induce the TLR7-mediated cellular activity if the compound generated at least a two-fold increase in the luciferase signal compared to the vector control.
HEK293 medium was prepared from 90% Minimum Essential Medium (MEM) with 2 mM L-glutamine and Earle's Balanced Salt Solution (Invitrogen Corp., Rockville, Md.) adjusted to contain 1.5 g/L sodium bicarbonate, 0.1 mM non-essential amino acids, and 1.0 mM sodium pyruvate; 10% heat-inactivated fetal calf serum. HEK293 cells were cultured by incubating cells in HEK293 medium overnight at 37° C, 8% CO2.
Twenty-four hours before transfection, HEK293 cells were adhered to a 10 cm dish (Corning 430167, Corning Inc., Corning, N.Y.) at 37° C., 8% CO2. The cells were co-transfected with (1) pIRES (BD Biosciences Clontech, Palo Alto, Calif.) either (a) unmodified (H-vector), or (b) containing an expressible human TLR7 gene (H-TLR7), and (2) NF-kB-luc reporter (Stratagene, La Jolla, Calif.) in a 10:1 ratio with Fugene 6 transfection reagent (Roche Diagnostics Corp., Indianapolis, Ind.) following the manufacturer's instructions. The plates were incubated for 24 hours following transfection and then selected in G-418 (400 μg/mL) for two weeks. The G-418-resistant cells containing either the expressible TLR7 gene or the empty vector were expanded in HEK293 medium supplemented with G-418 for stimulation experiments.
The transfected cells were plated in white opaque 96 well plates (Costar 3917, Corning Inc., Corning, N.Y.) at a concentration of 5×10^4 cells per well in 100 μL of HEK293 media and incubated at 37° C., 8% CO2 for 4 hours. The cells were stimulated with 1 μL of IRM compounds at 1 mM in DMSO (final IRM concentration of 10 μM) or 1 μL DMSO as a control. The plates were then incubated an additional 16 hours at 37° C., 5% CO2. The luciferase signal was read using the LucLite kit (Packard Instrument Co., Meriden, Conn.). Luminescence was measured on an LMAX luminometer (Molecular Devices Corp., Sunnyvale, Calif.).
(§2) The data are expressed as fold increase in TLR7-mediated luciferase signal—(H-TLR7/H-vector) and (N-TLR7/N-vector), respectively—normalized to the DMSO without compound control.
In general terms: Reporter assays use an easily measured gene product as a stand-in for the process of interest.

Assay [2] has as its target T1, human TLR7. The experiment in a line: TLR7 activation in Namalwa cells (IFN-α1 promoter luciferase reporter, N-TLR7/N-vector). The class given is cell-based. The note with it: final IRM concentration 10 μM, 18 hours, normalized to the DMSO without compound control. On the procedure:
as §1
Unless otherwise indicated, all incubations were performed at 37° C. with 5% CO2 at 98% humidity.
Culture medium was prepared from complete RPMI 1640 medium (BioSource International, Inc., Camarillo, Calif.). Fetal bovine serum (Atlas Biologicals, Inc., Ft. Collins, Colo.) was added to a final concentration of 7.5% (vol/vol); L-glutamine (BioSource International, Inc.) was added to 5 mM; and sodium pyruvate (BioSource International, Inc.) was added to 1 mM.
Namalwa cells were grown by incubation in culture medium overnight. Cells were harvested by centrifugation in a tabletop centrifuge (1200 RPM for 5 minutes), and then resuspended in phosphate buffered sucrose to a concentration of 1.3×10^7 cells/mL.
For each transfection, a 750 μL aliquot of the cell suspension was placed in an electroporation cuvette with 4 mm gaps. Each aliquot received transfection DNA: 10 μg of pGL3-Enhancing vector (Promega Corp., Madison, Wis.) containing the human IFN-α1 promoter cloned into the BglII site (pIFN-α1-luc), and 10 μg of pCI-neo mammalian expression vector (Promega Corp.) either (1) unmodified (N-vector) or (2) containing an expressible human TLR7 gene (N-TLR7). The cell and vector mixtures were incubated at room temperature for 5 minutes. The cells were electroporated using a BioRad Gene Pulser (BioRad Laboratories, Hercules, Calif.) set to at 500 μF capacitance and […], then incubated at room temperature for 5 minutes.
The electroporated cells were suspended in 10 mL of culture medium and incubated overnight. Dead cells and debris were removed after 24 hours using a MACS Dead Cell Removal kit (Miltenyi Biotec, Auburn, Calif.). Cells were resuspended in 10 mL of culture medium and incubated for an additional 24 hours.
Transfected cells were selected by adding G418 (Promega Corp., Madison, Wisc.) to a final concentration of 1 mg/mL and incubating the cells for seven days.
The selected transfected cells were counted and resuspended to a concentration of 1×10^6 cell per mL in culture medium. 100 μl aliquots of cells were placed in the wells of a white-walled, white-bottomed 96-well plate (Corning, Inc. Corning, N.Y.). 1.0 μL of an IRM compound from Table 1 (prepared at 1 mM in 100% DMSO) was added to some cell aliquots so that the final concentration of IRM compound was 10 μM. As a positive control, some cell aliquots were incubated with Sendai virus instead of IRM compound. As a negative control, some cell aliquots were incubated with DMSO without IRM compound. In all cases, the cells were incubated for 18 hours.
The plates were equilibrated to room temperature before 1 volume of reconstituted LucLight Plus (Packard Instruments, Meriden, Conn.) was added to each aliquot of cells. Each well of the plate was read on an LJL Analyst (LJL Biosystems, Inc., Sunnyvale, Calif.) set with a 5 minute dark adapt.
as §2

Take `CCOCc1nc2c(N)nc3ccccc3c2n1CCC(C)C` [IRM9, 2-ethoxymethyl-1-(3-methylbutyl)-1H-imidazo[4,5-c]quinolin-4-amine]: the “H-TLR7: fold increase in TLR7-mediated luciferase signal (H-TLR7/H-vector), NF-κB-dependent reporter” value at human TLR7 [1] was 0.7 fold. The “N-TLR7: fold increase in TLR7-mediated luciferase signal (N-TLR7/N-vector), IFN-α1 promoter reporter” value at human TLR7 [2] turned out to be 2.6 fold.
As for `CC(C)Cn1c(CO)nc2c(N)nc3c(c21)CCCC3` [IRM8, 2-hydroxymethyl-1-(2-methylpropyl)-6,7,8,9-tetrahydro-1H-imidazo[4,5-c]quinolin-4-amine], the “H-TLR7: fold increase in TLR7-mediated luciferase signal (H-TLR7/H-vector), NF-κB-dependent reporter” value at human TLR7 [1] came to 0.4 fold. The “N-TLR7: fold increase in TLR7-mediated luciferase signal (N-TLR7/N-vector), IFN-α1 promoter reporter” value on human TLR7 [2] is 3.0 fold.
For `CCCCCc1nc2c(N)nc3ccccc3c2n1CCCCNS(C)(=O)=O` [IRM14, N-[4-(4-amino-2-pentyl-1H-imidazo[4,5-c]quinolin-1-yl)butyl]methanesulfonamide] the same measures were 0.9 fold and 3.3 fold.

These data come from patent publication US20040191833A1, “Selective activation of cellular activities mediated through a common toll-like receptor” (3M Innovative Properties Company, priority 2003, published 2004).
